Source: ChEMBL document CHEMBL1133061, “Synthesis of N-diisopropyl phosphoryl benzyltetrahydroisoquinoline, a new class of mitochondrial complexes I and III inhibitors” (Bioorg Med Chem Lett, 2000)

Target: Mitochondrial complex I; NADH oxidoreductase (Bos taurus, UniProt P25708+P52505)
Assay: Inhibitory concentration against NADH oxidase
Assay type: protein-complex assay

Mitochondrial complex I; NADH oxidoreductase, sequence (P25708 21-464 limits assumed, other chains not shown): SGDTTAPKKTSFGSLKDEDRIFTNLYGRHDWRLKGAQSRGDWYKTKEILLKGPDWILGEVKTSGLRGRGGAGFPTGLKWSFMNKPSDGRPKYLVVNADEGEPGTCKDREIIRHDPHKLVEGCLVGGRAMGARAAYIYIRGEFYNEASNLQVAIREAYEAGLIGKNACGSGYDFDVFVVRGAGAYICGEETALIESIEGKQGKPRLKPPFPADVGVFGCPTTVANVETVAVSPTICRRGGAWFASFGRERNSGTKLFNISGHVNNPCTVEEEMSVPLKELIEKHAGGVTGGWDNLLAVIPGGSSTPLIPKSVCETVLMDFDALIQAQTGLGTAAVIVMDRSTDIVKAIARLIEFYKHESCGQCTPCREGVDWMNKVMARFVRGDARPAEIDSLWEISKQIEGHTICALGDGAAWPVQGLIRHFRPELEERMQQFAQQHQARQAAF

| Compound | IC50 [nM] |
| --- | --- |
| COc1cc2c(cc1OCc1ccccc1)CCN(C)C2Cc1ccccc1 (centres undefined) | 2700 |
| COc1cc2c(cc1OCc1ccccc1)CCN(P(=O)(OC(C)C)OC(C)C)C2Cc1ccccc1 (centres undefined) | 1690 |
| COc1cc2c(cc1OCc1ccccc1)CCN=C2Cc1ccccc1 | 2910 |
| COc1cc2c(cc1OCc1ccccc1)CCNC2Cc1ccccc1 (centres undefined) | 3880 |
